Test [1] addresses Cannabinoid receptor 2 (Mus musculus) (UniProt P47936). Briefly: Inverse agonist activity at mouse CB2 receptor expressed in HEK293 cells assessed as inhibition of forskolin-mediated cAMP accumulation after 5 mins by fluorescence assay relative to control. Format: functional, cell-based. (cAMP levels reflect the balance of adenylyl cyclase and phosphodiesterase activity.)
The target of test [2] is T1, Cannabinoid receptor 2 (Mus musculus, UniProt P47936). Briefly: Inverse agonist activity at C-terminally prolink-tagged mouse CB2 receptor expressed in CHOK1 cells harboring beta-galactosidase enzyme fused beta-arrestin assessed as increase in beta-arrestin recruitment after 90 mins by chemiluminescent assay. Format: cell-based. For orientation: Activated receptors often draw arrestin, which recruitment assays turn into a signal.
T1 sequence (P47936 whole entry, the tested form may be a part): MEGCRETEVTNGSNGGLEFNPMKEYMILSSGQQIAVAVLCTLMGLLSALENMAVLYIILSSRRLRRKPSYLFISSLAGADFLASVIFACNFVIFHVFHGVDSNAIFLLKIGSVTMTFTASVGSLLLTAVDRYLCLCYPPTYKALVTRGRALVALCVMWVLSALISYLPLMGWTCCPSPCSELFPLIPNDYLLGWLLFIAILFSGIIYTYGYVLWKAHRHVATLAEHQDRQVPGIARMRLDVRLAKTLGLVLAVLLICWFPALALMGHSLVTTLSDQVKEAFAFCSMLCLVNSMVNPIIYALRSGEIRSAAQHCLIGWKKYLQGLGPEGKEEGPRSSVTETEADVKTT

The target of test [3] is Cannabinoid receptor 2 (Mus musculus) (UniProt P47936). Briefly: Inverse agonist activity at C-terminally prolink-tagged mouse CB2 receptor expressed in CHOK1 cells harboring beta-galactosidase enzyme fused beta-arrestin assessed as increase in beta-arrestin recruitment after 90 mins by chemiluminescent assay relative to control. Format: cell-based.
Sequence of Cannabinoid receptor 2 (Mus musculus) (P47936 whole entry, the tested form may be a part): as above
Test [4] shares this target. Briefly: Ratio of EC50 for C-terminally prolink-tagged mouse CB2 receptor expressed in CHOK1 cells harboring beta-galactosidase enzyme fused beta-arrestin assessed as increase in beta-arrestin recruitment to EC50 for mouse CB2 receptor expressed in HEK293 cells assessed as inhibition of forskolin-mediated cAMP accumulation. Format: functional, cell-based.
In test [5] the target is T2, Adenosine receptor A3 (Homo sapiens, UniProt P0DMS8).
T2 sequence (P0DMS8 whole entry): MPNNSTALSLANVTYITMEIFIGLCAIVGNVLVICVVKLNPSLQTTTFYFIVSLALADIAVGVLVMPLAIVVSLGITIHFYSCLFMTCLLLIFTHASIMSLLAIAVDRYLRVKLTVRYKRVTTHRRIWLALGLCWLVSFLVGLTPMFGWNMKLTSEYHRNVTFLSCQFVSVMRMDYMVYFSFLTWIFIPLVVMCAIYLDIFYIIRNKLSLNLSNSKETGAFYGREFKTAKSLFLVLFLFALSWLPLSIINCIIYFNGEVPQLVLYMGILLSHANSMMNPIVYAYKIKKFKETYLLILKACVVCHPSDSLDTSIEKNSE
Briefly: Agonist activity at human adenosine A3 receptor expressed in FlpIn-CHO cells assessed as increase in ERK1/2 phosphorylation after 5 mins by alphascreen assay. Format: cell-based. A general note: Alpha assays give light when donor and acceptor beads are brought close together.

Test [6] has as its target T3, Adenosine receptor A3 (Homo sapiens) (UniProt P0DMS8).
T3 sequence (whole entry): T2 sequence (P0DMS8 whole entry)
Briefly: Agonist activity at human adenosine A3 receptor expressed in FlpIn-CHO cells assessed as increase in ERK1/2 phosphorylation after 5 mins by alphascreen assay relative to control. Format: cell-based.

Test [7] addresses T2, Adenosine receptor A3. Briefly: Agonist activity at human adenosine A3 receptor expressed in FlpIn-CHO cells assessed as inhibition of forskolin-mediated cAMP accumulation preincubated for 10 mins followed by forskolin addition measured after 30 mins by alphascreen assay. Format: functional, cell-based.
For test [8], the target named is T3, Adenosine receptor A3 (Homo sapiens). Briefly: Agonist activity at human adenosine A3 receptor expressed in FlpIn-CHO cells assessed as inhibition of forskolin-mediated cAMP accumulation preincubated for 10 mins followed by forskolin addition measured after 30 mins by alphascreen assay relative to control. Format: functional, cell-based.
Test [9] shares this target. In words: Ratio of pEC50 EC50 for agonist activity at human adenosine A3 receptor expressed in FlpIn-CHO cells assessed as inhibition of forskolin-mediated cAMP accumulation to pEC50 for agonist activity at human adenosine A3 receptor expressed in FlpIn-CHO cells assessed as increase in ERK1/2 phosphorylation. Format: functional, cell-based.
Test [10] has the same target. In words: Agonist activity at adenosine A3 receptor (unknown origin) expressed in serum starved CHO cells assessed as increase in cell survival after 24 hrs by propidium iodide staining-based assay relative to control.
The target is the same in test [11]. In words: Ratio of pEC50 for agonist activity at human adenosine A3 receptor expressed in FlpIn-CHO cells assessed as inhibition of forskolin-mediated cAMP accumulation to pEC50 for agonist activity at adenosine A3 receptor (unknown origin) expressed in serum starved CHO cells assessed as increase in cell survival after 24 hrs by propidium iodide staining-based assay. Format: functional.

For test [12], the target named is T4, D(2) dopamine receptor (Homo sapiens, UniProt P14416). In words: Agonist activity at dopamine D2long receptor (unknown origin) assessed as […] in cAMP accumulation relative to control. Format: functional.
T4 sequence (P14416 whole entry): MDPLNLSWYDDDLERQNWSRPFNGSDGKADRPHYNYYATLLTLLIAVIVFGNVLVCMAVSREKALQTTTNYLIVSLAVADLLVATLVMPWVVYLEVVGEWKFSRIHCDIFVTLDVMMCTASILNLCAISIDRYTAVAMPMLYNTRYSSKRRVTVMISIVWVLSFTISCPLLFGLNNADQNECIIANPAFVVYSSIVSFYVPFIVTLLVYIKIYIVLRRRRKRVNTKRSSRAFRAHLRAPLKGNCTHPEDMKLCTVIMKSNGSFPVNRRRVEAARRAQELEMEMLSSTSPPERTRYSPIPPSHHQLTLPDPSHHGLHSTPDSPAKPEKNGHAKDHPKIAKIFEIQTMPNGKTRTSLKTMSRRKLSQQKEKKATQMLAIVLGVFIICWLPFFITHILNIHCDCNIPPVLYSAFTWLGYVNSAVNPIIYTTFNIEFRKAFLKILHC
For test [13], the target named is T4, D(2) dopamine receptor. In words: Agonist activity at dopamine D2long receptor (unknown origin) assessed as […] in cAMP accumulation. Format: functional.
Test [14] deals with T4, D(2) dopamine receptor. Briefly: Agonist activity at dopamine D2long receptor (unknown origin) assessed as increase in beta-arrestin recruitment.
For test [15], the target named is T4, D(2) dopamine receptor. In words: Agonist activity at dopamine D2long receptor (unknown origin) assessed as increase in beta-arrestin recruitment relative to control.
For test [16], the target named is T4, D(2) dopamine receptor. In words: Antagonist activity at dopamine D2long receptor (unknown origin) assessed as inhibition of agonist-induced cAMP accumulation. Format: functional.
Test [17] has as its target T4, D(2) dopamine receptor. Briefly: Antagonist activity at dopamine D2long receptor (unknown origin) assessed as inhibition of agonist-induced beta-arrestin recruitment.
The target of test [18] is T4, D(2) dopamine receptor. Briefly: Antagonist activity at dopamine D2long receptor (unknown origin) assessed as inhibition of agonist-induced beta-arrestin recruitment relative to control.
Test [19] addresses T5, Histamine H4 receptor (Homo sapiens, UniProt Q9H3N8). Briefly: Agonist activity at histamine H4 receptor (unknown origin) expressed in HEK293T cells harboring CRE-luciferase after 6 hrs by luciferase reporter gene assay. Format: functional, cell-based.
Test [20] deals with T5, Histamine H4 receptor. In words: Agonist activity at histamine H4 receptor (unknown origin) expressed in HEK293T cells harboring CRE-luciferase after 6 hrs by luciferase reporter gene assay relative to control. Format: functional, cell-based.
Test [21] concerns the target T5, Histamine H4 receptor. Briefly: Agonist activity at histamine H4 receptor (unknown origin) expressed in human U2OS cells increase in beta-arrestin2 recruitment after 2 hrs by luminescence assay. Format: cell-based.
Test [22] deals with T5, Histamine H4 receptor. In words: Agonist activity at histamine H4 receptor (unknown origin) expressed in human U2OS cells increase in beta-arrestin2 recruitment after 2 hrs by luminescence assay relative to control. Format: cell-based.
Test [23] addresses T6, D(1A) dopamine receptor (Homo sapiens, UniProt P21728). Briefly: Agonist activity at human dopamine D1 receptor expressed in CHOK1 cells assessed as […] cAMP accumulation after 60 mins by luminescence assay. Format: functional, cell-based.
The target of test [24] is T6, D(1A) dopamine receptor. In words: Agonist activity at human dopamine D1 receptor expressed in CHOK1 cells assessed as assessed as increase in beta-arrestin-2 recruitment after 60 mins by luminescence assay. Format: cell-based.
Test [25] has as its target T1, Cannabinoid receptor 2. Briefly: Inverse agonist activity at mouse CB2 receptor expressed in HEK293 cells assessed as inhibition of forskolin-mediated cAMP accumulation after 5 mins by fluorescence assay. Format: functional, cell-based.
For test [26], the target named is T4, D(2) dopamine receptor. Briefly: Agonist activity at human dopamine D2long receptor (unknown origin) expressed in HEK293T cells co-expressing TEV fused-beta-Arrestin2 and GRK2 assessed as increase in beta-arrestin-2 recruitment at 1 uM after overnight incubation by Tango assay relative to control. Format: cell-based.

The text below walks through data of ChEMBL document CHEMBL4371007, “Biased Ligands of G Protein-Coupled Receptors (GPCRs): Structure-Functional Selectivity Relationships (SFSRs) and Therapeutic Potential” (J Med Chem, 2018).

T5 sequence (Q9H3N8 whole entry): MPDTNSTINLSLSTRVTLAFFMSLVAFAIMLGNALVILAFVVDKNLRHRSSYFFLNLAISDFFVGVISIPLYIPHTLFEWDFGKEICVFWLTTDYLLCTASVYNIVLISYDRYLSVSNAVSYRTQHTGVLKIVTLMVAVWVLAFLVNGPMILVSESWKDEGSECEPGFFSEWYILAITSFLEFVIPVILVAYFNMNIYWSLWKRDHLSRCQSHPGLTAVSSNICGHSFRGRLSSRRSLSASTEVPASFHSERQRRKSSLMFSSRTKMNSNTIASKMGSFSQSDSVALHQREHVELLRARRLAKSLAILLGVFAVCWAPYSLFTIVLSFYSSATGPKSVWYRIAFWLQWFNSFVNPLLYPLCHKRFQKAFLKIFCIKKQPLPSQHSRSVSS
T6 sequence (P21728 whole entry): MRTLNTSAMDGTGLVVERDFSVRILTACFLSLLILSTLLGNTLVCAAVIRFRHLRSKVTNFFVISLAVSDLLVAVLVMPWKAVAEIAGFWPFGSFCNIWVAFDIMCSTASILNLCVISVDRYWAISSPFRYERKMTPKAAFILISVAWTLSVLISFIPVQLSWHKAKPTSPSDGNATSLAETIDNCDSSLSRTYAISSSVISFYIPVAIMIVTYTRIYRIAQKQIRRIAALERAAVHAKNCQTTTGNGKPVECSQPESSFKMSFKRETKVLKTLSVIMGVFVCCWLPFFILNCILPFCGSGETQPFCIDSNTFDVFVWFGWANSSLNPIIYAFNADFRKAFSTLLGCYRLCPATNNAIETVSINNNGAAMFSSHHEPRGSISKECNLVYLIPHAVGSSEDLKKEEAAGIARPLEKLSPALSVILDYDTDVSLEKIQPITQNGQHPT

As a reminder, the EC50 is the midpoint of the concentration-response curve. As to `CCCCCn1cc(C(=O)C2C(C)(C)C2(C)C)c2ccccc21`, the Emax in [1] came out at 12%; in test [3], 70%. For the same molecule, the EC50 in test [2] was found to be 95 nM. Also, the Ratio EC50 in [4] is 0.0015.

Take `CNC(=O)[C@@]12C[C@@H]1[C@@H](n1cnc3c(NCc4cccc(Cl)c4)nc(C#Cc4cc5cccc6ccc7cccc4c7c65)nc31)[C@H](O)[C@@H]2O`: the EC50 in test [5] was 1000 nM; in [7] it was 316 nM. The Emax in test [6] was 112%; in test [8] it was 78%; in test [10], 80%. Moreover, in test [9], the Ratio EC50 stood at 3. For the same molecule, in test [11], the Ratio was found to be 43.

In the case of `CC1(Oc2ccc(Cl)cc2)CCN(CCOc2ccccc2)C1` (stereo not drawn), the Emax in test [12] is 75%; in test [15], 15%; in test [18], 80%. In addition, the EC50 in [13] was 120 nM; in test [14], above 30000 nM; in [16] it was above 30 µM; in test [17], 2140 nM.

In the case of `CC1(Oc2ccc(Cl)cc2)CCN(CCOc2ccccc2)CC1`, the Emax in test [12] turned out to be 100%; in test [15], 75%. In addition, the EC50 was 10 nM in test [13], 120 nM in [14], above 30 µM in [16] and above 30000 nM in test [17].

On to `CNC(=O)[C@@]12C[C@@H]1[C@@H](n1cnc3c(N(C)c4cccc(Cl)c4)nc(Cl)nc31)[C@H](O)[C@@H]2O`, for which the Emax in test [6] came out at 94%; in test [8] it was 70%; in test [10], 85%. For the same molecule, in [9], the Ratio EC50 worked out at 1.4. In addition, in test [11], the Ratio turned out to be 3.1.

Take `c1nc(CCn2cc(CC3CCCCC3)nn2)c[nH]1`: the EC50 in [19] was 126 nM; in [21], 1000 nM. The Emax came to 82% in test [20] and 17% in [22].

Regarding `N=C(NCc1cccc(Cl)c1)SCCCc1c[nH]cn1`, the EC50 in test [19] was 6.31 nM; in test [21] it was 39.8 nM. Also, the Emax in [20] came to 92%; in [22] it was 37%.

In the case of `CN1CCc2c(cc(O)c(O)c2Cl)[C@@H](c2ccccc2)C1`, the values for the EC50 in [23] and in test [24] were 0.3 nM and above 10 µM, respectively.

Take `CCCn1c(C)c(C(=O)c2cccc3ccccc23)c2ccccc21`: the EC50 in test [25] is 30 nM; in test [2], 160 nM. Also, the values for the Emax in test [1] and in test [3] were 23% and 28%, respectively. Besides, in test [4], the Ratio EC50 was 28.1.

Regarding `CCCCCc1cc(O)c2c(c1)OC(C)(C)[C@@H]1CCC(C)=C[C@@H]21` [DRONABINOL], the EC50 in test [25] was found to be 7.3 nM. Besides, the figures for the Emax in test [1] and in test [3] were 52% and 3%, respectively. Also, the Ratio EC50 in [4] was found to be 33.1.

With `CNC(=O)[C@@]12C[C@@H]1[C@@H](n1cnc3c(NCc4cccc(Cl)c4)nc(C#Cc4ccc(-c5ccccc5)cc4)nc31)[C@H](O)[C@@H]2O`, the EC50 is 25.1 nM in [5] and 7.94 nM in [7]. For the same molecule, the values for the Emax in test [6], in test [8] and in [10] were 95%, 59% and 85%, respectively. The Ratio EC50 in [9] was 3.2. The Ratio in test [11] was 224.

Regarding `CNC(=O)[C@@]12C[C@@H]1[C@@H](n1cnc3c(NCc4cccc(Cl)c4)nc(C#Cc4ccccc4)nc31)[C@H](O)[C@@H]2O`, the figures for the EC50 in [5] and in test [7] were 0.501 nM and 0.794 nM, respectively. For the same molecule, the Emax in test [6] came to 88%; in test [8], 78%; in test [10], 83%. The Ratio EC50 in [9] worked out at 2.1. Moreover, in test [11], the Ratio turned out to be 8.1.

For `Cn1ccc2c(N3CCN(CCCCOc4ccc5c(c4)NC(=O)CC5)CC3)cccc21`, in [26], the Emax was 36%.
